Laboratory results published in ChEMBL document CHEMBL1201862, “PubChem BioAssay data set” (2004).
Calls of active or inactive are those of the source.

Assays:
Tumor necrosis factor = Tumor necrosis factor (Homo sapiens, UniProt P01375); test: TNFa-triggered NF-kB activation inhibitors, SAR follow-up, cell-based, revised (AID 2337); type: functional
[1] = target: T1, Nucleotide-binding oligomerization domain-containing protein 1 (Homo sapiens, UniProt Q9Y239); test: NOD1 signaling inhibitors, SAR follow-up, revised (AID 2333); type: functional
T1 sequence (Q9Y239 whole entry): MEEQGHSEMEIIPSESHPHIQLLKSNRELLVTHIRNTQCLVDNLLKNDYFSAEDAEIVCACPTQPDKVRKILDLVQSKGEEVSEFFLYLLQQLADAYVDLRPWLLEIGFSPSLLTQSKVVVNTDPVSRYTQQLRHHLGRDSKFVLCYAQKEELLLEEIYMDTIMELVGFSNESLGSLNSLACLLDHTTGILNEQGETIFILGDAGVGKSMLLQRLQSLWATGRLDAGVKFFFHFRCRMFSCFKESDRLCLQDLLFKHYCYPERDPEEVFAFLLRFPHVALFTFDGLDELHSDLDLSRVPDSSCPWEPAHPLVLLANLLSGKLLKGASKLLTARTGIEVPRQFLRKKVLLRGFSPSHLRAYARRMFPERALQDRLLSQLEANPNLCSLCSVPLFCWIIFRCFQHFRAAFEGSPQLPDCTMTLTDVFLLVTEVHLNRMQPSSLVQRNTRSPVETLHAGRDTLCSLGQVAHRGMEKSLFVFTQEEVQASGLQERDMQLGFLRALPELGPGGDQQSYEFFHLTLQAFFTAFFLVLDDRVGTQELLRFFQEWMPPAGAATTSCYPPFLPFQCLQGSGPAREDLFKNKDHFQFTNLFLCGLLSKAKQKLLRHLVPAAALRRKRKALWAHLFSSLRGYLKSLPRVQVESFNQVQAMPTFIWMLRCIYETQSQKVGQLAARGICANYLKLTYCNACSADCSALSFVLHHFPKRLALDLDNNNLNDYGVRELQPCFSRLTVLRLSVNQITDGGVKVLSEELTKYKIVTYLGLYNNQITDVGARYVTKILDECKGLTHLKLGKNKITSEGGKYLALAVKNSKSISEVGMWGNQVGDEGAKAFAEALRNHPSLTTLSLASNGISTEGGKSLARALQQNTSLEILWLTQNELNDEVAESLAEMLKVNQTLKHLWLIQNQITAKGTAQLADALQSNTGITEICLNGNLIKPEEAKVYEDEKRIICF

[2] = target: Nucleotide-binding oligomerization domain-containing protein 2 (Homo sapiens, UniProt Q9HC29); test: PubChem AID 2334; type: functional
HEK293 = test: cells; conditions: Homo sapiens;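 further: cells exposed to compound for 14 hours overnight before viability readout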
Leucine aminopeptidase = target: T2, Leucine aminopeptidase (Plasmodium falciparum 3D7, UniProt Q8IL11); test: P. falciparum M17LAP inhibitors, primary screen, biochemical, fluorogenic H-Leu-NHMec substrate, 1536-well (AID 1619); type: functional
T2 sequence (Q8IL11 whole entry): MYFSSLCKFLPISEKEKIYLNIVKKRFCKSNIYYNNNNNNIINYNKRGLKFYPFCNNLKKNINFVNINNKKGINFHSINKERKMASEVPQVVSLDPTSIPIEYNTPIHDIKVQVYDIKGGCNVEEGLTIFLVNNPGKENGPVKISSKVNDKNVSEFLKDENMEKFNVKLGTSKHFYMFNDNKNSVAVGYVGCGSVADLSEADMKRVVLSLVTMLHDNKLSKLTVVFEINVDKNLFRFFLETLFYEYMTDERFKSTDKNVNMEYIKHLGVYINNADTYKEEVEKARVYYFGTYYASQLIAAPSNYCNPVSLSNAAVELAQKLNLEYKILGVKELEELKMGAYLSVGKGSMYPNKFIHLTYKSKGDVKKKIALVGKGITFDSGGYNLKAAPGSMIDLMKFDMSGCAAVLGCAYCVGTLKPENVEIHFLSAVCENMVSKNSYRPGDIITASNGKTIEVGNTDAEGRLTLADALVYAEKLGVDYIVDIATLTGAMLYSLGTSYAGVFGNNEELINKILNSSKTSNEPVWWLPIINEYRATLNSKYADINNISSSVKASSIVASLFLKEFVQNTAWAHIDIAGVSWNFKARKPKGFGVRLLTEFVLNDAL

[3] = target: Peroxisome proliferator-activated receptor gamma/Nuclear receptor coactivator 2 (Homo sapiens, UniProt P37231); type: functional;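 further: agonist potency for raising coactivator recruitment to the receptor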
[4] = target: Peroxisome proliferator-activated receptor gamma/Nuclear receptor coactivator 1 (Homo sapiens, UniProt P37231); type: functional;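 further: agonist potency as compounds enhance coactivator SRC-1 recruitment to PPARgamma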
[5] = target: Photoreceptor-specific nuclear receptor (Homo sapiens, UniProt Q9Y5X4); type: functional;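 further: potency for compounds that break the NR2E3 corepressor complex and count as activators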
[6] = target: Peroxisome proliferator-activated receptor gamma/Nuclear receptor coactivator 3 (Homo sapiens, UniProt P37231); type: functional;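 further: agonist potency for raising coactivator recruitment to the receptor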
[7] = target: Peroxisome proliferator-activated receptor gamma/Nuclear receptor corepressor 2 (Homo sapiens, UniProt P37231+Q9Y618); type: functional
[8] = inhibitors of firefly luciferase expression or activity, dose response, H4 neuroglioma cells, luminescence (AID 1990); type: functional, cell-based
[9] = target: Luciferin 4-monooxygenase (Photinus pyralis, UniProt P08659); test: Counter Screen for Luciferase-based Assay Positives. [Related pubchem assays: 620, 618, 411 ]
[10] = target: Glyceraldehyde-3-phosphate dehydrogenase (Homo sapiens, UniProt P04406)
[11] = Luminescence Cell-Based Dose Response HTS to Identify Inhibitors of 5'UTR Stem-Loop Driven Prion Protein mRNA Translation in H4 Neuroglioblastoma Cells. [Related pubchem assays: 1827 (Project Summary), 1813 (Primary HTS)]; type: functional
[12] = inhibitors of SNCA 5'UTR-driven reporter translation, confirmation, H4 neuroglioma cells, luminescence (AID 1988); type: functional, cell-based
HT-1080 = test: cytotoxicity in HT1080 fibrosarcoma cells, cell-based, fluorescence readout (AID 620); type: functional; conditions: Homo sapiens
Cytochrome P450 2C19 = Cytochrome P450 2C19 (Homo sapiens, UniProt P33261); test: Cytochrome panel assay with activity outcomes. Panel member name: p450-cyp2c19 Compounds with AC50 equal or less than 10 uM are considered active; type: functional; conditions: read-out: AC50
[13] = A cytotoxicity screen of small molecule inhibitors of the PhoP region in Salmonella typhi identified in the primary screen. [Related pubchem assays: 1850, 1864, 1985 ]; type: functional
[14] = inhibitors of intracellular T. cruzi replication, confirmation, NIH3T3 host cells, beta-gal luminescence (AID 2044); type: functional, cell-based;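 further: intracellular parasites grown in NIH/3T3 mouse fibroblasts as host cells; luminescent beta-galactosidase reporter signal from transgenic T. cruzi replicating inside host cells; inhibitors lower the luminescence signal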
[15] = cytotoxicity toward NIH3T3 fibroblasts, dose response, counter-screen, cell-based, ATP luminescence, mouse fibroblasts (AID 2010); type: functional;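 further: cells exposed to compound for about 90 hours before reading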
[16] = HepG2 cell cytotoxicity, dose response, cytotoxicity control for non-replicating M. tuberculosis project (AID 489018); type: functional; conditions: Mycobacterium tuberculosis
cells [17] = type: functional
[18] = Shn3 3'UTR reporter inhibitors, dose response, cell-based, Clone20 osteoblasts, firefly luciferase, cherry-picked (AID 624132); type: functional;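 further: firefly luciferase luminescence from reporter carrying the Shn3 3'UTR in osteoblasts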
[19] = HepG2 cell cytotoxicity, dose response, cytotoxicity control for Shn3 inhibitor project, CellTiter-Glo, cherry-picked (AID 624134); type: functional, cell-based
[20] = control 3'UTR Renilla luciferase suppression, dose response, counter-screen for Shn3 inhibitor project, cell-based, Clone20-Shn3RL, cherry-picked (AID 624133); type: functional
[21] = luciferase reporter signal reduction – luminescence, H4-C neuroglioblastoma cells, dose response (AID 2458); type: functional, cell-based;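 further: H4 neuroglioblastoma cells stably carrying a luciferase reporter gene fusion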
cells [22] = type: functional, cell-based
[23] = inhibitors of SNCA 5'UTR-driven translation, confirmation, luminescence, H4 neuroglioblastoma cells, dose confirmation (AID 2454); type: functional, cell-based;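 further: H4 neuroglioblastoma cells carrying an alpha-synuclein 5'UTR luciferase reporter; potency for inhibition of the luciferase signal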
Jurkat = test: antigen receptor-induced NF-kB inhibitors, dose response, Jurkat, luciferase reporter, luminescence, B- and T-cell (AID 489004); type: functional, cell-based; conditions: Homo sapiens;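 further: NF-kB luciferase reporter Jurkat cells stimulated with PMA plus ionomycin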
[24] = cytotoxicity in HEK-293T NF-kB-Luc cells, dose response, cytotoxicity control for B/T-cell NF-kB inhibitor project, cell-based, uHTS hits (AID 489019); type: functional;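 further: IC50 reflects cytotoxicity as loss of cell viability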
P388/ADR = test: cells; type: functional; conditions: Mus musculus
SN12K1 = test: cells; type: functional; conditions: Homo sapiens
P388 = test: cells; type: functional; conditions: Mus musculus
[25] = A Cell Based Secondary Assay To Explore Cytotoxicity of Compounds that Sensitize Mycobacterium Tuberculosis to Beta-Lactam Antibiotics.; type: functional
cells [26] = type: functional, cell-based; remark: listed apart in the source
cells [27] = type: functional, cell-based; remark: listed apart in the source
[28] = target: T3, Microphthalmia-associated transcription factor (Homo sapiens, UniProt O75030); test: TRPM1 promoter luciferase signal decrease, dose response, MITF inhibitor project, cell-based, SK-MEL-5, cherry-picked, set 3 (AID 493073); type: functional
T3 sequence (O75030 whole entry): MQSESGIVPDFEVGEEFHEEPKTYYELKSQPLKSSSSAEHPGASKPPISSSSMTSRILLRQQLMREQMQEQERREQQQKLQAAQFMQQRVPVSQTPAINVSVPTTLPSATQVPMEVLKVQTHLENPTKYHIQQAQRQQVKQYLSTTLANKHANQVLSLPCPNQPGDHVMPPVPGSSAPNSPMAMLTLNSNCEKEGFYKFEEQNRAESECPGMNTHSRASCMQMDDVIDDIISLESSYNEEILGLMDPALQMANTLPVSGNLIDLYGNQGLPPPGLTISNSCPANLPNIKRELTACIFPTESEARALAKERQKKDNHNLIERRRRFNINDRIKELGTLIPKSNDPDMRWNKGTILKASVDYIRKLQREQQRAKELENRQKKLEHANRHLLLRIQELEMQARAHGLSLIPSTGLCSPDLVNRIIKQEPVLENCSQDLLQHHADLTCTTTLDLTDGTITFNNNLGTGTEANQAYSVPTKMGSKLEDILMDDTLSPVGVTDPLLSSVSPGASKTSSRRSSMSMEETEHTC

Cytochrome P450 3A4 = Cytochrome P450 3A4 (Homo sapiens, UniProt P08684);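 further: CYP3A4 tested as one member of a cytochrome P450 panel screen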
Cytochrome P450 2C9 = Cytochrome P450 2C9 (Homo sapiens, UniProt P11712)

Chain of Nucleotide-binding oligomerization domain-containing protein 2 (Q9HC29 whole entry, the tested form may be a part): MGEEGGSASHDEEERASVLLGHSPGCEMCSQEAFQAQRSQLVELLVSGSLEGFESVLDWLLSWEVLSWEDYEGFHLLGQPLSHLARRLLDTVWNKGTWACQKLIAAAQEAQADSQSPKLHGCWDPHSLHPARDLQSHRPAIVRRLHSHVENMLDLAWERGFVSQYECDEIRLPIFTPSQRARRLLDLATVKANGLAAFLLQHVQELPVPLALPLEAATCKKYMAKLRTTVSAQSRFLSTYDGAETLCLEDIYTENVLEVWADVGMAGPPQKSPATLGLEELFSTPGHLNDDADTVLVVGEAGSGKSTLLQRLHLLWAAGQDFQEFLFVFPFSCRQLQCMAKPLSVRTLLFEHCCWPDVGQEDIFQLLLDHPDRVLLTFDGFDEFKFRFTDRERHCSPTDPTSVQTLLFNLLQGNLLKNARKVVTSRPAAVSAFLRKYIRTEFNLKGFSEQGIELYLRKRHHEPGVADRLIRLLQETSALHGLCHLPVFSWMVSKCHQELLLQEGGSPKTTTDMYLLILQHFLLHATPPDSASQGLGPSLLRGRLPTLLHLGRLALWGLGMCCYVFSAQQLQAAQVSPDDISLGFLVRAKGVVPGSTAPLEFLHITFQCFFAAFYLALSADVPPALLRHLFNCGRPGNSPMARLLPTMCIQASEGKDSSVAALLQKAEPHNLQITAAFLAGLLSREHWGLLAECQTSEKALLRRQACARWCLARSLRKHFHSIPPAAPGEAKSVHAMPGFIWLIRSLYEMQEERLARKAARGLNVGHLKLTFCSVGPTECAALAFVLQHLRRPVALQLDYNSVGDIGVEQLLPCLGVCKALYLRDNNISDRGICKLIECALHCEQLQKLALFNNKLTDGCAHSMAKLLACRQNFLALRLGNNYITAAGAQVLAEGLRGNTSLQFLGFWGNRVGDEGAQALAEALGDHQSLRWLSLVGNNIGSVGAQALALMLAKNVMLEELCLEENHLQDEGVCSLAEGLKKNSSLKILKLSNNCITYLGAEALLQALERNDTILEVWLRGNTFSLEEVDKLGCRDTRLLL
Chain of Luciferin 4-monooxygenase (P08659 whole entry): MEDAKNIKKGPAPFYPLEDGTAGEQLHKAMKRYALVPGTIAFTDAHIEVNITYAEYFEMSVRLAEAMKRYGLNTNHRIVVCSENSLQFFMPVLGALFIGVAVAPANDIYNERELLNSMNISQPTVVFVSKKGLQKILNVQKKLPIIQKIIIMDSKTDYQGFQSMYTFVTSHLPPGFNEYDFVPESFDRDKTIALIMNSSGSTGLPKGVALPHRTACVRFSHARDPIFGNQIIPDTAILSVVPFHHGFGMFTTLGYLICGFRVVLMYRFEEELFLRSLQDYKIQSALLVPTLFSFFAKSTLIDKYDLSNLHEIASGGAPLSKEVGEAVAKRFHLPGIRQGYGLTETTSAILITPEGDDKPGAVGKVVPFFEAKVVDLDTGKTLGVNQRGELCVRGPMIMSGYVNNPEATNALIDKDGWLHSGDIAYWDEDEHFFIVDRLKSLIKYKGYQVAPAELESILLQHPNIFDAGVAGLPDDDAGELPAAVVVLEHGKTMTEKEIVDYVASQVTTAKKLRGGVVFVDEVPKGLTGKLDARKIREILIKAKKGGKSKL
Chain of Tumor necrosis factor (P01375 whole entry, the tested form may be a part): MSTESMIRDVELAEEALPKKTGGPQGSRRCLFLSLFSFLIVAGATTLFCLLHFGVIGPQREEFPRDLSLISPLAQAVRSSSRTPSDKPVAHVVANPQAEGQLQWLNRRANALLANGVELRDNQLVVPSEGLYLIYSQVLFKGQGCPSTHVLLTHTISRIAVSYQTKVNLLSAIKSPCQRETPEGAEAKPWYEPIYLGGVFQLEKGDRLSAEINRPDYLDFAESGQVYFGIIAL
Chain of Peroxisome proliferator-activated receptor gamma/Nuclear receptor coactivator 3 (P37231 whole entry): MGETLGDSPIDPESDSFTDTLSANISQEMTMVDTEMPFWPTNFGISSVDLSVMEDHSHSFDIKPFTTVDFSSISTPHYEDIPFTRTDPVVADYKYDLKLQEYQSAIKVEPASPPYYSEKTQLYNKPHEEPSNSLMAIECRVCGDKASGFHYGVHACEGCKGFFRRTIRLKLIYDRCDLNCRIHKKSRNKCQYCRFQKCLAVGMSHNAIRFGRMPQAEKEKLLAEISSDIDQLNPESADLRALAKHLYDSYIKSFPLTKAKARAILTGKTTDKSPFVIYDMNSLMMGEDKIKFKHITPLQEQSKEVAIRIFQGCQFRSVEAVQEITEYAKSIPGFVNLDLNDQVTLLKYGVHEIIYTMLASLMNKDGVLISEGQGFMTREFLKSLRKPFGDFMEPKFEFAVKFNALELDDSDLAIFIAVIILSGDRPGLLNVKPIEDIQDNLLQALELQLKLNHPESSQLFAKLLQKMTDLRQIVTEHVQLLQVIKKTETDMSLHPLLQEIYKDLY
Chain of Peroxisome proliferator-activated receptor gamma/Nuclear receptor coactivator 3 (Q9Y6Q9 whole entry, further chain): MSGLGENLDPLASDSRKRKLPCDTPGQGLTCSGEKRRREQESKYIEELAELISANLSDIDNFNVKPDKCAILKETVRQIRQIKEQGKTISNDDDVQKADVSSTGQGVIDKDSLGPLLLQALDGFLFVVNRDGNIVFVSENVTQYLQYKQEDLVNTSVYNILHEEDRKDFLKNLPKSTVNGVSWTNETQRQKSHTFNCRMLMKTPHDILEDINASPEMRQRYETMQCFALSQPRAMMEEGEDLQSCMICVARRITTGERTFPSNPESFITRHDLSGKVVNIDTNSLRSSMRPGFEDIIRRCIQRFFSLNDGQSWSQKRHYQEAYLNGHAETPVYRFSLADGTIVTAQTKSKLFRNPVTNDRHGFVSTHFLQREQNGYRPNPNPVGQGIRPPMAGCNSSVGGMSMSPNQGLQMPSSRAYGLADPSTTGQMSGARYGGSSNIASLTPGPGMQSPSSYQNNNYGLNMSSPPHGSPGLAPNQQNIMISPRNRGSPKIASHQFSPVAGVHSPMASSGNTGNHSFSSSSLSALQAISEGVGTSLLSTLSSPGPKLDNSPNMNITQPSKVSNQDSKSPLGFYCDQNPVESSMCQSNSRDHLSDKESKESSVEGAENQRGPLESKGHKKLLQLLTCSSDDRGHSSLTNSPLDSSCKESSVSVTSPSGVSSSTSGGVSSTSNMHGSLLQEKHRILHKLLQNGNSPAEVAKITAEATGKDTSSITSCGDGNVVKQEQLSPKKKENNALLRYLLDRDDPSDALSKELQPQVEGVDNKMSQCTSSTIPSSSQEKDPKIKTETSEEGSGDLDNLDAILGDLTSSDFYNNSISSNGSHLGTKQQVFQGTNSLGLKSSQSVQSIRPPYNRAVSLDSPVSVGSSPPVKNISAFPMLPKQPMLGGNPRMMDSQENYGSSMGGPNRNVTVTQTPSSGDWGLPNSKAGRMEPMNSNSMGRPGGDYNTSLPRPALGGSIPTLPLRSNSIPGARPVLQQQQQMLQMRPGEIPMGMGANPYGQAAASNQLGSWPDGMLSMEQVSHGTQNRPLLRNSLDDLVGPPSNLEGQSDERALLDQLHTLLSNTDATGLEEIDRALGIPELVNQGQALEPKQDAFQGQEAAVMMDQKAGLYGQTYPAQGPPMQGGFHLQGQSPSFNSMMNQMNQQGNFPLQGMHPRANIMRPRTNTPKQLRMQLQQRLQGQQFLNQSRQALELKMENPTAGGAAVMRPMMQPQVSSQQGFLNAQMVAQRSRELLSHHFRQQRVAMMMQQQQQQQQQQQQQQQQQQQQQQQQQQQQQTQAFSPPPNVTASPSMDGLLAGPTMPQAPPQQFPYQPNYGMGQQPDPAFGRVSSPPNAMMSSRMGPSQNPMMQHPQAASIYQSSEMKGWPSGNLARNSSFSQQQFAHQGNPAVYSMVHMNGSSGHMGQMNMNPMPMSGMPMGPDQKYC
Chain of Photoreceptor-specific nuclear receptor (Q9Y5X4 whole entry): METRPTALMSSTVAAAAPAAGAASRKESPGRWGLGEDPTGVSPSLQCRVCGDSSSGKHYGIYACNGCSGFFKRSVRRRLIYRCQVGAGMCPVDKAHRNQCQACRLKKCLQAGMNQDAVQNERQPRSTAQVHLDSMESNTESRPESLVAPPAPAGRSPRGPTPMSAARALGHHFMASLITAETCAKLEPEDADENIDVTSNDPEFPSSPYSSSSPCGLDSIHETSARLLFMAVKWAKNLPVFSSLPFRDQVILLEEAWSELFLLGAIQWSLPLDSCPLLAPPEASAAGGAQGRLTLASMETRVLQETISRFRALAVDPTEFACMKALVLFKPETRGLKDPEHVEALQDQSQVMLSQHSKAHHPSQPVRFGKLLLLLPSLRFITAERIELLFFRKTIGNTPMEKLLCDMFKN
Chain of Cytochrome P450 2C19 (P33261 whole entry): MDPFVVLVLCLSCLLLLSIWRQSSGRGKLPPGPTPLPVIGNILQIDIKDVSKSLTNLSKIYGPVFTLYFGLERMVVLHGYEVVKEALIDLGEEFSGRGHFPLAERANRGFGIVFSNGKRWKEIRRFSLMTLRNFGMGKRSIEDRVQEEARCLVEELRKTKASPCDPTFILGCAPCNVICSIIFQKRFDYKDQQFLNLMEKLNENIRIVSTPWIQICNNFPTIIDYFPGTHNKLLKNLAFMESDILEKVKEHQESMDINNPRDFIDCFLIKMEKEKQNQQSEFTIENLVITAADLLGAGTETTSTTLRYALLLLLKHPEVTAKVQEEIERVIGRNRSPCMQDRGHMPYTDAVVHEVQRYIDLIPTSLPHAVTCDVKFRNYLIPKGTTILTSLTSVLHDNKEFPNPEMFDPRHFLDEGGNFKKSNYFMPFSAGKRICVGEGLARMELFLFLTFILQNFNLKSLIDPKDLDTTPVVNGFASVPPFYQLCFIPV
Chain of Glyceraldehyde-3-phosphate dehydrogenase (P04406 whole entry): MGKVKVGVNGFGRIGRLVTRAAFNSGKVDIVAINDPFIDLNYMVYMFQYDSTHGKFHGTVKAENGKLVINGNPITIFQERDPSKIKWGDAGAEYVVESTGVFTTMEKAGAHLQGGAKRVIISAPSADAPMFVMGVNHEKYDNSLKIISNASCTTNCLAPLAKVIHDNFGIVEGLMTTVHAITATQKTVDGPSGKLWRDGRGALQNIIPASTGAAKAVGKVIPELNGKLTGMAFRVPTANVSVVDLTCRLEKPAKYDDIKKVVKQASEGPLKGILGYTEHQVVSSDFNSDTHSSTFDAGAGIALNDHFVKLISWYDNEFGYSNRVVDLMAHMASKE

SMILES: CC1(C)Cc2c(sc(NC(=O)C(=O)N3CCCCC3)c2C(=O)O)CO1
- IC50 (Tumor necrosis factor): > 20 µM (inactive)
- IC50 [1]: > 20 µM (inactive)
- IC50 [2]: > 20 µM (inactive)
- IC50 (HEK293): > 20 µM (inactive)

SMILES: CC(C)[C@H](Nc1nc(-c2ccccc2)nc2c1oc1ccccc12)C(=O)O
- IC50 (Leucine aminopeptidase): 25.2 µM (active)

SMILES: CCc1cc2cc(C(=O)Nc3ccc(C)cc3)sc2s1
- EC50 [3]: 28.1 µM (not active)
- EC50 [4]: 50.4 µM (not active)
- IC50 [5]: > 39.8 µM (not active)
- EC50 [6]: 50.8 µM (not active)
- IC50 [7]: 2.25 µM (active)

SMILES: CC1(C)Cc2c(sc(NC(=O)c3ccccc3)c2C(=O)O)CO1
- IC50 (Tumor necrosis factor): > 20 µM (inactive)
- IC50 [1]: > 20 µM (inactive)
- IC50 [2]: > 20 µM (inactive)
- IC50 (HEK293): > 20 µM (inactive)

SMILES: CCOc1ccc(-c2cc(CCCC(=O)Nc3cc(OC)ccc3OC)no2)cc1
- EC50 [8]: 13 µM (active)
- EC50 [9]: 18.8 µM (active)
- IC50 [10]: > 100 µM (not active)
- EC50 [11]: 26.9 µM (active)
- EC50 [12]: 11.9 µM (active)
- EC50 (HT-1080): > 50 µM (not active)
- AC50 (Cytochrome P450 2C19): 3.16 µM (inconclusive)

SMILES: CC(C)(C)c1ccc(NC(=O)COc2ccc(-n3ccnc3)cc2)cc1
- EC50 [13]: > 50 µM (active)
- EC50 [14]: 1.27 µM (active)
- EC50 [15]: > 60 µM (not active)
- CC50 [16]: > 20 µM (active)
- IC50 (cells [17]): 26.1 µM (active)
- AC50 [18]: 5.27 µM (active)
- AC50 [19]: 43.1 µM (active)
- AC50 [20]: 10 µM (active)

SMILES: COc1ccc(/C(C)=C2/SC(=S)N(CCC(=O)O)C2=O)cc1
- IC50 (Leucine aminopeptidase): 27.4 µM (active)

SMILES: C=CCNC(=O)c1ccc(-c2nc(-c3ccc(Cl)cc3Cl)cs2)cc1
- EC50 [3]: 10.2 µM (not active)
- EC50 [4]: 17.1 µM (not active)
- EC50 [6]: 10.9 µM (not active)

SMILES: COc1ccc(-c2nc3cc(NC(=O)Cc4ccc(OC)c(OC)c4)ccc3o2)cc1
- EC50 [13]: > 50 µM (active)

SMILES: COC(=O)Cc1ccc(NC(=O)c2ccc(C(C)(C)C)cc2)cc1
- EC50 [8]: < 0.1 µM (active)
- EC50 [21]: 0.067 µM (active)
- EC50 [9]: 1.8 µM (active)
- EC50 (cells [22]): 0.263 µM (active)
- EC50 [11]: < 0.1 µM (active)
- EC50 [12]: < 0.1 µM (active)
- EC50 (HT-1080): > 50 µM (not active)
- EC50 [23]: 0.161 µM (active)
- IC50 (Jurkat): 0.19 µM (active)
- IC50 [24]: 78.9 µM (inactive)

SMILES: O=C1NC(=S)NC(=O)C1=C(O)Nc1ccccc1
- EC50 [13]: > 50 µM (active)
- GI50 (P388/ADR): 25.2 µM (inactive)
- GI50 (SN12K1): 15 µM (inactive)
- GI50 (P388): 16.7 µM (inactive)

SMILES: O=C1C2ON(c3ccc(Br)cc3)C(c3cccnc3)C2C(=O)N1C1CCCCC1 (stereo not given)
- CC50 [25]: 37.9 µM (active)

SMILES: COc1cccc(CNC(=O)CCCn2c(=S)[nH]c3cc4c(cc3c2=O)OCO4)c1
- IC50 [5]: > 39.8 µM (not active)
- EC50 (cells [26]): > 350 µM (not active)
- EC50 (cells [27]): 54.4 µM (active)
- IC50 [7]: 4.26 µM (active)

SMILES: CC(=O)Nc1nc2ccccc2n1S(=O)(=O)c1ccc(Cl)cc1
- IC50 (Tumor necrosis factor): > 20 µM (inactive)
- IC50 [1]: 4.56 µM (active)
- IC50 [2]: > 20 µM (inactive)
- IC50 (HEK293): > 20 µM (inactive)

SMILES: CCOC(=O)/C(=N\Nc1ccccc1)c1csc(Nc2ccc(C)cc2)n1
- CC50 [25]: 31.3 µM (active)
- EC50 [14]: 2.13 µM (active)
- EC50 [15]: > 30 µM (not active)

SMILES: O=C(N/N=C/c1ccc([N+](=O)[O-])s1)c1ccccc1Br
- EC50 [9]: 0.24 µM (active)
- EC50 (HT-1080): > 50 µM (not active)
- AC50 [28]: 3.65 µM (active)
- AC50 (Cytochrome P450 3A4): 22.4 µM (inconclusive)
- AC50 (Cytochrome P450 2C9): 39.8 µM (inconclusive)
